Reference: patent US5891869A, “Basic oxazoline-amide derivatives of GE2270 and GE2270-like antibiotics” (Biosearch Italia, S.p.A., priority 1995, dated 1999)

Columns and labels:
Test in all cases: MIC by microbroth dilution
[1] = tested on: Streptococcus pyogenes L49; type: cell-based; details: 0,01% BSA, 10^4 CFU/ml, 18-24 h, Todd Hewitt broth
Method: (§1) The minimal inhibitory concentration (MIC) has been determined by microbroth dilution methodology, in the presence of 0,01% (w/v) of bovine serum albumin (BSA). BSA is added to the diluent to avoid possible adherence of the compounds of the invention to the plastic surface of the microtiter wells, as disclosed also by B. Goldstein et al., Antimicrobial Agents and Chemotherapy, 37 (1993), 741-745.
(§2) Inocula were 10^4 CFU/ml, except for Propionibacterium acnes and Bacteroides fragilis (10^5 CFU/ml) MICs were read after 18-24 h, except for Haemophilus influenzae, P. acnes, B. fragilis (48 h).
(§3) All microorganisms were incubated at 37° C.; H. influenzae in a 5% CO2 atmosphere, anaerobes in a N2 --CO2 --H2 (80:10:10) mixture; other organisms in air.
(§4) The growth media are: Oxoid Iso-Sensitest broth for staphylococci and Enterococcus faecalis); Difco Todd Hewitt broth for streptococci; Difco brain heart infusion broth+1% Difco Supplement C. for H. influenzae; Difco Wilkins-Chalgren broth for anaerobes.

[2] = tested on: Staphylococcus aureus L165; type: cell-based; details: 0,01% BSA, inoculum 10^4 CFU/ml, read after 18-24 h, Iso-Sensitest broth
Method: as §1, §2, §3, §4

Strept. agalactiae L310 = type: cell-based, Streptococcus agalactiae; details: 0,01% BSA, 10^4 CFU/ml, 18-24 h, Todd Hewitt broth
Method: as §1, §2, §3, §4

Strept. pneumoniae L44 = type: cell-based, Streptococcus pneumoniae; details: 0,01% BSA, 10^4 CFU/ml, 18-24 h, Todd Hewitt broth
Method: as §1, §2, §3, §4

[3] = tested on: Haemoph. influenzae ATCC 19418 L970; type: cell-based, Haemophilus influenzae; details: 0,01% BSA, 10^4 CFU/ml, 48 h, 5% CO2, brain heart infusion broth+1% Supplement C
Method: as §1, §2, §3, §4

Strept. sanguis L1721 = type: cell-based, Streptococcus sanguis; details: 0,01% BSA, 10^4 CFU/ml, 18-24 h, Todd Hewitt broth
Method: as §1, §2, §3, §4

[4] = tested on: Propionibact. acnes ATCC 6919 L1014; type: cell-based, Propionibacterium acnes; details: 0,01% BSA, 10^5 CFU/ml, 48 h, anaerobic, Wilkins-Chalgren broth
Method: as §1, §2, §3, §4

[5] = tested on: Bacteroides fragilis ATCC 25285 L1011; type: cell-based; details: 0,01% BSA, 10^5 CFU/ml, 48 h, anaerobic, Wilkins-Chalgren broth
Method: as §1, §2, §3, §4

Staph. haemolyticus L602 = type: cell-based, Staphylococcus haemolyticus; details: 0,01% BSA, 10^4 CFU/ml, 18-24 h, Iso-Sensitest broth
Method: as §1, §2, §3, §4

[6] = tested on: Staph. epidermidis ATCC 12228 L147; type: cell-based, Staphylococcus epidermidis; details: 0,01% BSA, 10^4 CFU/ml, 18-24 h, Iso-Sensitest broth
Method: as §1, §2, §3, §4

MIC of the compounds [1] [µg/mL]	MIC of the compounds [2] [µg/mL]	MIC of the compounds (Strept. agalactiae L310) [µg/mL]	MIC of the compounds (Strept. pneumoniae L44) [µg/mL]	MIC of the compounds (Strept. sanguis L1721) [µg/mL]	Structure (SMILES)	MIC of the compounds [3] [µg/mL]	MIC of the compounds [4] [µg/mL]	MIC of the compounds [5] [µg/mL]	MIC of the compounds (Staph. haemolyticus L602) [µg/mL]	MIC of the compounds [6] [µg/mL]
2	0.06	4	0.5	0.5	CCN(CC)CCNC(=O)C1COC(c2csc(-c3ccc4c(n3)-c3csc(n3)-c3csc(n3)C(C(O)c3ccccc3)NC(=O)CNC(=O)c3nc(sc3COC)C(C(C)C)NC(=O)c3nc(sc3C)C(CC(=O)NC)NC(=O)c3csc-4n3)n2)=N1 (mixture of isomers) [Compound 3]	128				
1	0.06	2	0.25	0.25	CNC(=O)CC1NC(=O)c2csc(n2)-c2ccc(-c3nc(C4=NC(C(=O)NCCCN(C)C)CO4)cs3)nc2-c2csc(n2)-c2csc(n2)C(C(O)c2ccccc2)NC(=O)CNC(=O)c2nc(sc2COC)C(C(C)C)NC(=O)c2nc1sc2C (mixture of isomers) [Compound 5]			32		
8	0.06	4	0.5	1	CCN(CCN(C)C)C(=O)C1COC(c2csc(-c3ccc4c(n3)-c3csc(n3)-c3csc(n3)C(C(O)c3ccccc3)NC(=O)CNC(=O)c3nc(sc3COC)C(C(C)C)NC(=O)c3nc(sc3C)C(CC(=O)NC)NC(=O)c3csc-4n3)n2)=N1 (mixture of isomers) [Compound 8]					
2	0.06	32	0.5	1	CCN(CC)CCN(CC)C(=O)C1COC(c2csc(-c3ccc4c(n3)-c3csc(n3)-c3csc(n3)C(C(O)c3ccccc3)NC(=O)CNC(=O)c3nc(sc3COC)C(C(C)C)NC(=O)c3nc(sc3C)C(CC(=O)NC)NC(=O)c3csc-4n3)n2)=N1 (mixture of isomers) [Compound 9]					
2	0.06	4	0.25	0.5	CNC(=O)CC1NC(=O)c2csc(n2)-c2ccc(-c3nc(C4=NC(C(=O)N5CCC(N(C)C)CC5)CO4)cs3)nc2-c2csc(n2)-c2csc(n2)C(C(O)c2ccccc2)NC(=O)CNC(=O)c2nc(sc2COC)C(C(C)C)NC(=O)c2nc1sc2C (mixture of isomers) [Compound 10]					
8	0.13	> 128	2	4	CNC(=O)CC1NC(=O)c2csc(n2)-c2ccc(-c3nc(C4=NC(C(=O)NCCN(C(C)C)C(C)C)CO4)cs3)nc2-c2csc(n2)-c2csc(n2)C(C(O)c2ccccc2)NC(=O)CNC(=O)c2nc(sc2COC)C(C(C)C)NC(=O)c2nc1sc2C (mixture of isomers) [Compound 11]					
2	0.06	4	0.5	0.5	CNC(=O)CC1NC(=O)c2csc(n2)-c2ccc(-c3nc(C4=NC(C(=O)N5CC(C)NC(C)C5)CO4)cs3)nc2-c2csc(n2)-c2csc(n2)C(C(O)c2ccccc2)NC(=O)CNC(=O)c2nc(sc2COC)C(C(C)C)NC(=O)c2nc1sc2C (mixture of isomers) [Compound 12]					
2	0.06	4	0.25	0.25	CNC(=O)CC1NC(=O)c2csc(n2)-c2ccc(-c3nc(C4=NC(C(=O)N(C)CC(=O)N(C)CCN(C)C)CO4)cs3)nc2-c2csc(n2)-c2csc(n2)C(C(O)c2ccccc2)NC(=O)CNC(=O)c2nc(sc2COC)C(C(C)C)NC(=O)c2nc1sc2C (mixture of isomers) [Compound 14]					
4	0.06	4	0.25	0.5	CNC(=O)CC1NC(=O)c2csc(n2)-c2ccc(-c3nc(C4=NC(C(=O)NC(C)C(=O)N(C)CCN(C)C)CO4)cs3)nc2-c2csc(n2)-c2csc(n2)C(C(O)c2ccccc2)NC(=O)CNC(=O)c2nc(sc2COC)C(C(C)C)NC(=O)c2nc1sc2C (mixture of isomers) [Compound 15]					
2	0.06	8	0.25	0.25	CNC(=O)CC1NC(=O)c2csc(n2)-c2ccc(-c3nc(C4=NC(C(=O)N(C)CCN(C)CCN(C)C)CO4)cs3)nc2-c2csc(n2)-c2csc(n2)C(C(O)c2ccccc2)NC(=O)CNC(=O)c2nc(sc2COC)C(C(C)C)NC(=O)c2nc1sc2C (mixture of isomers) [Compound 16]					
2	0.06	8	0.5	0.5	CNC(=O)CC1NC(=O)c2csc(n2)-c2ccc(-c3nc(C4=NC(C(=O)N5CCN(CCCN(C)C)CC5)CO4)cs3)nc2-c2csc(n2)-c2csc(n2)C(C(O)c2ccccc2)NC(=O)CNC(=O)c2nc(sc2COC)C(C(C)C)NC(=O)c2nc1sc2C (mixture of isomers) [Compound 17]					
1	0.06	4	0.25	0.25	CNC(=O)CC1NC(=O)c2csc(n2)-c2ccc(-c3nc(C4=NC(C(=O)N5CCCC5CN(C)CCN(C)C)CO4)cs3)nc2-c2csc(n2)-c2csc(n2)C(C(O)c2ccccc2)NC(=O)CNC(=O)c2nc(sc2COC)C(C(C)C)NC(=O)c2nc1sc2C (mixture of isomers) [Compound 21]					

Structure (SMILES)	MIC of the compounds [1] [µg/mL]	MIC of the compounds [2] [µg/mL]	MIC of the compounds (Strept. agalactiae L310) [µg/mL]	MIC of the compounds (Strept. pneumoniae L44) [µg/mL]	MIC of the compounds (Strept. sanguis L1721) [µg/mL]	MIC of the compounds [3] [µg/mL]	MIC of the compounds [4] [µg/mL]	MIC of the compounds [5] [µg/mL]	MIC of the compounds (Staph. haemolyticus L602) [µg/mL]	MIC of the compounds [6] [µg/mL]
CCN1CCCC1CNC(=O)C1COC(c2csc(-c3ccc4c(n3)-c3csc(n3)-c3csc(n3)C(C(O)c3ccccc3)NC(=O)CNC(=O)c3nc(sc3COC)C(C(C)C)NC(=O)c3nc(sc3C)C(CC(=O)NC)NC(=O)c3csc-4n3)n2)=N1 (mixture of isomers) [Compound 1]	2	0.06	2	0.25	0.5	128				
CNC(=O)CC1NC(=O)c2csc(n2)-c2ccc(-c3nc(C4=NC(C(=O)NCCN5CCCC5)CO4)cs3)nc2-c2csc(n2)-c2csc(n2)C(C(O)c2ccccc2)NC(=O)CNC(=O)c2nc(sc2COC)C(C(C)C)NC(=O)c2nc1sc2C (mixture of isomers) [Compound 2]	1	0.06	4	0.25	0.5	128				
CNC(=O)CC1NC(=O)c2csc(n2)-c2ccc(-c3nc(C4=NC(C(=O)N(C)CCN(C)C)CO4)cs3)nc2-c2csc(n2)-c2csc(n2)C(C(O)c2ccccc2)NC(=O)CNC(=O)c2nc(sc2COC)C(C(C)C)NC(=O)c2nc1sc2C (mixture of isomers) [Compound 4]	0.5	0.06	0.5	0.13	0.13	4	0.016	8	0.06	0.06
CNC(=O)CC1NC(=O)c2csc(n2)-c2ccc(-c3nc(C4=NC(C(=O)N5CCN(C)CC5)CO4)cs3)nc2-c2csc(n2)-c2csc(n2)C(C(O)c2ccccc2)NC(=O)CNC(=O)c2nc(sc2COC)C(C(C)C)NC(=O)c2nc1sc2C (mixture of isomers) [Compound 6]	4	0.06	4	0.25	0.25			128		
CNC(=O)CC1NC(=O)c2csc(n2)-c2ccc(-c3nc(C4=NC(C(=O)NCCN(C)C)CO4)cs3)nc2-c2csc(n2)-c2csc(n2)C(C(O)c2ccccc2)NC(=O)CNC(=O)c2nc(sc2COC)C(C(C)C)NC(=O)c2nc1sc2C (mixture of isomers) [Compound 7]	4	0.13	8	1	1					
